US8288555B2, “Alkene derivatives as sphingosine 1-phosphate (S1P) receptor modulators” (Allergan, Inc., priority 2010, dated 2012)

Molecular target: T1, human S1P4 receptor (Homo sapiens, UniProt O95977)
T1 construct: expressed in transfected cells; membranes used
T1 sequence (O95977 1-384): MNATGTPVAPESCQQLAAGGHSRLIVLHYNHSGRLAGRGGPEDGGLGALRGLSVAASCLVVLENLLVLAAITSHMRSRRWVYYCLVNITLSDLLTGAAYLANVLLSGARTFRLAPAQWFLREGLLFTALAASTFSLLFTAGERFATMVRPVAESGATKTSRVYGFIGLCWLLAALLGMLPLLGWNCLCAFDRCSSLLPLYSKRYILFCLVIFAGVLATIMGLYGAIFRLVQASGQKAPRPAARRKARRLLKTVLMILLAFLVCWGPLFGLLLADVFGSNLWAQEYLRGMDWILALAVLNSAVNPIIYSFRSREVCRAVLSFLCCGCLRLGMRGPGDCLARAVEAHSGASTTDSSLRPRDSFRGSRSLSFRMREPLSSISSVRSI
Assay: GTP γ35S binding assay for S1P4 activity
Assay type: biochemical
Settings: activity potency at the S1P4 receptor from GTP γ35S binding; membranes of cells stably expressing the S1P4 receptor; test compounds 0.08 to 5,000 nM
Protocol: Compounds were synthesized and tested for S1P4 activity using the GTP γ^35S binding assay. These compounds may be assessed for their ability to activate or block activation of the human S1P4 receptor in cells stably expressing the S1P4 receptor.
GTP γ^35S binding was measured in the medium containing (mM) HEPES 25, pH 7.4, MgCl2 10, NaCl 100, dithitothreitol 0.5, digitonin 0.003%, 0.2 nM GTP γ^35S, and 5 μg membrane protein in a volume of 150 μl. Test compounds were included in the concentration range from 0.08 to 5,000 nM unless indicated otherwise. Membranes were incubated with 100 μM 5′-adenylylimmidodiphosphate for 30 min, and subsequently with 10 μM GDP for 10 min on ice. Drug solutions and membrane were mixed, and then reactions were initiated by adding GTP γ^35S and continued for 30 min at 25° C. Reaction mixtures were filtered over Whatman GF/B filters under vacuum, and washed three times with 3 mL of ice-cold buffer (HEPES 25, pH7.4, MgCl2 10 and NaCl 100). Filters were dried and mixed with scintillant, and counted for ^35S activity using a β-counter. Agonist-induced GTP γ^35S binding was obtained by subtracting that in the absence of agonist. Binding data were analyzed using a non-linear regression method. In case of antagonist assay, the reaction mixture contained 10 nM S1P in the presence of test antagonist at concentrations ranging from 0.08 to 5000 nM.

| Compound | EC50 [nM] |
| --- | --- |
| CNc1ncccc1-c1noc(/C(=C/c2ccc(C)c(C)c2)c2cccs2)n1 [3-{5-[(Z)-2-(3,4-dimethylphenyl)-1-(2-thienyl)vinyl]-1,2,4-oxadiazol-3-yl}-N-methylpyridin-2-amine] | 140 |
| CNc1ncccc1-c1noc(/C(=C/c2ccc(C)c(C)c2)c2cccc(F)c2)n1 [Compound 5, 3-{5-[(E)-2-(3,4-Dimethylphenyl)-1-(3-fluorophenyl)vinyl]-1,2,4-oxadiazol-3-yl}-N-methylpyridin-2-amine] | 375 |
| CNc1ncccc1-c1noc(/C(=C/c2ccc(C)c(C)c2)c2cccc(C)c2)n1 [Compound 6, 3-{5-[(E)-2-(3,4-Dimethylphenyl)-1-(3-methylphenyl)vinyl]-1,2,4-oxadiazol-3-yl}-N-methylpyridin-2-amine] | 2020 |
| CNc1ncccc1-c1noc(/C(=C/c2ccc(C)c(C)c2)c2cccc(Cl)c2)n1 [Compound 7, 3-{5-[(E)-1-(3-Chlorophenyl)-2-(3,4-dimethylphenyl)vinyl]-1,2,4-oxadiazol-3-yl}-N-methylpyridin-2-amine] | 79.3 |
| CNc1ncccc1-c1noc(/C(=C/c2ccc(C)c(C)c2)c2ccsc2)n1 [Compound 8, 3-{5-[(E)-2-(3,4-Dimethylphenyl)-1-(3-thienyl)vinyl]-1,2,4-oxadiazol-3-yl}-N-methylpyridin-2-amine] | 665 |
| CNc1ncccc1-c1noc(/C(=C/c2ccc(C)cc2)c2cccs2)n1 [Compound 10, N-Methyl-3-{5-[(Z)-2-(4-methylphenyl)-1-(2-thienyl)vinyl]-1,2,4-oxadiazol-3-yl}pyridin-2-amine] | 635 |
| CNc1ncccc1-c1noc(/C(=C/c2ccc(C)c(C)c2)c2cc(F)cc(F)c2)n1 [Compound 14, 3-{5-[(E)-1-(3,5-Difluorophenyl)-2-(3,4-dimethylphenyl)vinyl]-1,2,4-oxadiazol-3-yl}-N-methylpyridin-2-amine] | 550 |
| CNc1ncccc1-c1noc(/C(=C/c2ccc(C)c(C)c2)c2cccc(OC)c2)n1 [Compound 15, 3-{5-[(E)-2-(3,4-Dimethylphenyl)-1-(3-methoxyphenyl)vinyl]-1,2,4-oxadiazol-3-yl}-N-methylpyridin-2-amine] | 1780 |
| CNc1ncccc1-c1noc(/C(=C/c2ccc(C)c(C)c2)c2ccccc2OC)n1 [Compound 16, 3-{5-[(E)-2-(3,4-Dimethylphenyl)-1-(2-methoxyphenyl)vinyl]-1,2,4-oxadiazol-3-yl}-N-methylpyridin-2-amine] | 501 |
| CNc1ncccc1-c1noc(/C(=C/c2ccccc2C)c2cccc(Cl)c2)n1 [Compound 20, 3-{5-[(E)-1-(3-Chlorophenyl)-2-(2-methylphenyl)vinyl]-1,2,4-oxadiazol-3-yl}-N-methylpyridin-2-amine] | 2000 |
